This note sets out measurements from US20250382344A1, “Soluble GLP1/GIP/NPY2 Receptor Triple Agonists” (Boehringer Ingelheim International GmH, priority 2024, published 2025).

One data set addresses T1, hGLP1R (Homo sapiens, UniProt P43220).
T1 construct: expressed in transfected cells; host or cells: HEK-293 CRE-luciferase reporter cells
Put plainly: hGLP1R CreLuc assay in 0.5% and 100% plasma (HEK-293 CRE-luciferase reporter cells). In kind it is cell-based. The conditions noted are these: HEK-293 reporter cells. For orientation: In a reporter assay the amount or activity of a reporter protein is the signal.

Another data set concerns the target T2, hGIPR (Homo sapiens, UniProt P48546).
T2 construct: expressed in transfected cells; host or cells: CHO CRE-luciferase reporter cells
T2 sequence (P48546 22-466): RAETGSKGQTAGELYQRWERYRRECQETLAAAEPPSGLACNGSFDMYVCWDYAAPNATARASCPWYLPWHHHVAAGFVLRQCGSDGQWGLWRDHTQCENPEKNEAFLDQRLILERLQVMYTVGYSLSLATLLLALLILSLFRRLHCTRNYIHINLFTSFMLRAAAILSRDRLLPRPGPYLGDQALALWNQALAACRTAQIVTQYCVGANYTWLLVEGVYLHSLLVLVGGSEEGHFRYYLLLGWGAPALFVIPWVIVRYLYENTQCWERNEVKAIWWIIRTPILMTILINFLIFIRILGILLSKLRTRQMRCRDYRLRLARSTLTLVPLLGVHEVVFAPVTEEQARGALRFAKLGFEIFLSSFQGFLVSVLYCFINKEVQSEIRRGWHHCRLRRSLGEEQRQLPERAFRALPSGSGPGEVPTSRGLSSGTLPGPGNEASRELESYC
Briefly: hGIPR CreLuc assay in 0.5% and 100% plasma (CHO CRE-luciferase reporter cells). In kind it is cell-based.

The nature of data set [1]: Solubility in 0.1 M phosphate buffer at pH 7. The conditions noted are these: 0.1 M phosphate buffer at pH 7, 10 mg/mL final peptide concentration, shaking 2 hours at room temperature, peptides as TFA-salts; measured sample pH 6.5-7.0. In kind it is physicochemical.
The next data set deals with T3, hNPY2R (Homo sapiens, UniProt P49146).
T3 construct: expressed in transfected cells; host or cells: HEK-293 CRE-luciferase reporter cells
T3 sequence (P49146 1-381): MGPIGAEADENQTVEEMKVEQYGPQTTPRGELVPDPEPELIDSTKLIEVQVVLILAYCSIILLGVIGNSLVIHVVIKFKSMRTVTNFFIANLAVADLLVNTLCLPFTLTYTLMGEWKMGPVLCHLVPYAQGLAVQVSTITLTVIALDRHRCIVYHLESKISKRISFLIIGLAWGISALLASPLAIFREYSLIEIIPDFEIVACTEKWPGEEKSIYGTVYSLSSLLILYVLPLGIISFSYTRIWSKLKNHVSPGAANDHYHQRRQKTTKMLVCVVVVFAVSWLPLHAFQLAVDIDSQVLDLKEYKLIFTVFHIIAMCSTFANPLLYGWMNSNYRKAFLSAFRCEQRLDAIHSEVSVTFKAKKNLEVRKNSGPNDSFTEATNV
Briefly: hNPY2R CreLuc assay in 0.5% and 100% plasma (HEK-293 CRE-luciferase reporter cells). In kind it is cell-based. The conditions noted are these: HEK-293 reporter cells.

The mark [2] stands for this setting: 0.5% human plasma, read-out: hGLP1R 0.5% hP.
The mark [3] stands for this setting: 0.5% human plasma, read-out: hGIPR 0.5% hP.
The mark [4] stands for this setting: 0.5% human plasma, read-out: hNPY2R 0.5% hP.
Where [5] appears, read: 100% human plasma, read-out: hNPY2R 100% hP.

Molecules are shown by their SMILES. Like-named read-outs stand apart in the source and are kept apart here.

T1 sequence (P43220 24-463): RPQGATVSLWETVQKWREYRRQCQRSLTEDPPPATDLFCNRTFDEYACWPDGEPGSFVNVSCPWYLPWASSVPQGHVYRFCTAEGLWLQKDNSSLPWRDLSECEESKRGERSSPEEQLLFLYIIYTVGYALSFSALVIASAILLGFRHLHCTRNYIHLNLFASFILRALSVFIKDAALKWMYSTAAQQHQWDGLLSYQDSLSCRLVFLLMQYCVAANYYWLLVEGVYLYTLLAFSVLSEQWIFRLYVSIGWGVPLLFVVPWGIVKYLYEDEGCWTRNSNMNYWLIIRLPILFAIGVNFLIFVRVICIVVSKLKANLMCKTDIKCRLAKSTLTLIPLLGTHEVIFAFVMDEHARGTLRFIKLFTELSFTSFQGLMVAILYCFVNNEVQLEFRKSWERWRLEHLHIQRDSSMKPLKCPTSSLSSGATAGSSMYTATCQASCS

The solubility is how much of the substance goes into solution per volume. Take `CC[C@H](C)[C@H](NC(=O)[C@H](CC(C)C)NC(=O)[C@H](Cc1c[nH]cn1)NC(=O)[C@H](CCCNC(=N)N)NC(=O)[C@@H](NC(=O)[C@H](Cc1ccccc1)NC(=O)[C@H](CCC(=O)O)NC(=O)C(C)(C)NC(=O)[C@H](CCC(N)=O)NC(=O)[C@H](C)NC(=O)[C@H](CCC(N)=O)NC(=O)[C@H](CCCCN)NC(=O)[C@H](CC(=O)O)NC(=O)[C@H](CC(C)C)NC(=O)C(C)(C)NC(=O)[C@@H](NC(=O)[C@H](CO)NC(=O)[C@H](Cc1ccc(O)cc1)NC(=O)[C@H](CC(=O)O)NC(=O)[C@H](CO)NC(=O)[C@@H](NC(=O)[C@H](Cc1ccccc1)NC(=O)[C@@H](NC(=O)CNC(=O)[C@H](CCC(=O)O)NC(=O)C(C)(C)NC(=O)[C@@H](N)Cc1ccc(O)cc1)[C@@H](C)O)[C@@H](C)O)[C@@H](C)CC)C(C)C)C(=O)N[C@@H](CC(N)=O)C(=O)N[C@@H](CCCCNC(=O)[C@@H](N)CCCCNC(=O)CC[C@H](NC(=O)CC[C@H](NC(=O)CC[C@H](NC(=O)CC[C@H](NC(=O)CC[C@H](NC(=O)CC[C@H](NC(=O)CCCCCCCCCCCCCCCCC(=O)O)C(=O)O)C(=O)O)C(=O)O)C(=O)O)C(=O)O)C(=O)O)C(=O)NC(C)(C)C(=O)N[C@H](C(=O)N[C@@H](CCCNC(=N)N)C(=O)N[C@@H](CCC(N)=O)C(=O)N[C@@H](CCCNC(=N)N)C(=O)N[C@@H](Cc1ccc(O)cc1)C(N)=O)[C@@H](C)O` [Compound 131, Y-Aib-E-G-T-F-T-S-D-Y-S-I-Aib-L-D-K-Q-A-Q-Aib-E-F-V-R-H-L-I-N-K(1,3)-Aib-T-R-Q-R-Y-NH2.C18DA-gGlu-gGlu-gGlu-gGlu-gGlu-gGlu-eLys(1,2)]: the EC50 on hGLP1R (setting [2]) stood at 0.1 nM; at hGIPR (setting [3]), 0.3 nM; at hNPY2R (setting [4]), 17.5 nM. The solubility at 2 h in data set [1] is 9000 µg/mL.

As to `CC[C@H](C)[C@H](NC(=O)[C@H](CC(C)C)NC(=O)[C@H](Cc1c[nH]cn1)NC(=O)[C@H](CCCNC(=N)N)NC(=O)[C@@H](NC(=O)[C@H](Cc1ccccc1)NC(=O)[C@H](C)NC(=O)C(C)(C)NC(=O)[C@H](CCC(N)=O)NC(=O)[C@H](C)NC(=O)[C@H](CCC(N)=O)NC(=O)[C@H](CCCCN)NC(=O)[C@H](CCC(=O)O)NC(=O)[C@H](CC(C)C)NC(=O)C(C)(C)NC(=O)[C@@H](NC(=O)[C@H](CO)NC(=O)[C@H](Cc1ccc(O)cc1)NC(=O)[C@H](CC(=O)O)NC(=O)[C@H](CO)NC(=O)[C@@H](NC(=O)[C@H](Cc1ccccc1)NC(=O)[C@@H](NC(=O)CNC(=O)[C@H](CCC(=O)O)NC(=O)C(C)(C)NC(=O)[C@@H](N)Cc1ccc(O)cc1)[C@@H](C)O)[C@@H](C)O)[C@@H](C)CC)C(C)C)C(=O)N[C@@H](CC(N)=O)C(=O)N[C@@H](CCCCNC(=O)[C@@H](N)CCCCNC(=O)CC[C@H](NC(=O)CC[C@H](NC(=O)CC[C@H](NC(=O)CC[C@H](NC(=O)CC[C@H](NC(=O)CC[C@H](NC(=O)CCCCCCCCCCCCCCCCC(=O)O)C(=O)O)C(=O)O)C(=O)O)C(=O)O)C(=O)O)C(=O)O)C(=O)NC(C)(C)C(=O)N[C@H](C(=O)N[C@@H](CCCNC(=N)N)C(=O)N[C@@H](CCC(N)=O)C(=O)N[C@@H](CCCNC(=N)N)CC(=O)N[C@@H](Cc1ccc(O)cc1)C(N)=O)[C@@H](C)O` [Compound 146, Y-Aib-E-G-T-F-T-S-D-Y-S-I-Aib-L-E-K-Q-A-Q-Aib-A-F-V-R-H-L-I-N-K(1,3)-Aib-T-R-Q-bhArg-Y-NH2.C18DA-gGlu-gGlu-gGlu-gGlu-gGlu-gGlu-eLys(1,2)], the EC50 on hGLP1R (setting [2]) was 1 nM; at hGIPR (setting [3]), 0.2 nM; at hNPY2R (setting [5]), 89.8 nM. In addition, the solubility at 2 h in data set [1] turned out to be 5000 µg/mL.

In the case of `CC[C@H](C)[C@H](NC(=O)[C@H](CC(C)C)NC(=O)[C@H](Cc1c[nH]cn1)NC(=O)[C@H](CCCNC(=N)N)NC(=O)[C@@H](NC(=O)[C@H](Cc1ccccc1)NC(=O)[C@H](C)NC(=O)[C@H](Cc1ccc(O)cc1)NC(=O)[C@H](CCC(N)=O)NC(=O)[C@H](C)NC(=O)[C@H](CCC(N)=O)NC(=O)[C@H](CCCCN)NC(=O)[C@H](CCC(=O)O)NC(=O)[C@H](CC(C)C)NC(=O)C(C)(C)NC(=O)[C@@H](NC(=O)[C@H](CO)NC(=O)[C@H](Cc1ccc(O)cc1)NC(=O)[C@H](CC(=O)O)NC(=O)[C@H](CO)NC(=O)[C@@H](NC(=O)[C@H](Cc1ccccc1)NC(=O)[C@@H](NC(=O)CNC(=O)[C@H](CCC(=O)O)NC(=O)C(C)(C)NC(=O)[C@@H](N)Cc1ccc(O)cc1)[C@@H](C)O)[C@@H](C)O)[C@@H](C)CC)C(C)C)C(=O)N[C@@H](CC(N)=O)C(=O)N[C@@H](CCCCNC(=O)[C@@H](N)CCCCNC(=O)CC[C@H](NC(=O)CC[C@H](NC(=O)CC[C@H](NC(=O)CC[C@H](NC(=O)CC[C@H](NC(=O)CC[C@H](NC(=O)CCCCCCCCCCCCCCCCC(=O)O)C(=O)O)C(=O)O)C(=O)O)C(=O)O)C(=O)O)C(=O)O)C(=O)NC(C)(C)C(=O)N[C@H](C(=O)N[C@@H](CCCNC(=N)N)C(=O)N[C@@H](CCC(N)=O)C(=O)N[C@@H](CCCNC(=N)N)C(=O)N[C@@H](Cc1ccc(O)cc1)C(N)=O)[C@@H](C)O` [Compound 151, Y-Aib-E-G-T-F-T-S-D-Y-S-I-Aib-L-E-K-Q-A-Q-Y-A-F-V-R-H-L-I-N-K(1,3)-Aib-T-R-Q-R-Y-NH2.C18DA-gGlu-gGlu-gGlu-gGlu-gGlu-gGlu-eLys(1,2)], the EC50 at hGLP1R (100% human plasma, read-out: hGLP1R 100% hP) is 7 nM; at hGIPR (setting [3]), 0.5 nM; on hGIPR (100% human plasma, read-out: hGIPR 100% hP) it was 5.6 nM; at hNPY2R (setting [5]), 89.8 nM. Moreover, the solubility at 2 h in data set [1] was 10300 µg/mL.

On to `CC[C@H](C)[C@H](NC(=O)[C@H](CC(C)C)NC(=O)[C@H](Cc1ccc(O)cc1)NC(=O)[C@H](CCCNC(=N)N)NC(=O)[C@@H](NC(=O)[C@H](Cc1ccccc1)NC(=O)[C@H](C)NC(=O)C(C)(C)NC(=O)[C@H](CCC(N)=O)NC(=O)[C@H](C)NC(=O)[C@H](CCC(N)=O)NC(=O)[C@H](CCCCN)NC(=O)[C@H](CC(=O)O)NC(=O)[C@H](CC(C)C)NC(=O)C(C)(C)NC(=O)[C@@H](NC(=O)[C@H](CO)NC(=O)[C@H](Cc1ccc(O)cc1)NC(=O)[C@H](CC(=O)O)NC(=O)[C@H](CO)NC(=O)[C@@H](NC(=O)[C@H](Cc1ccccc1)NC(=O)[C@@H](NC(=O)CNC(=O)[C@H](CCC(=O)O)NC(=O)C(C)(C)NC(=O)[C@@H](N)Cc1ccc(O)cc1)[C@@H](C)O)[C@@H](C)O)[C@@H](C)CC)C(C)C)C(=O)N[C@@H](CC(N)=O)C(=O)N[C@@H](CCCCNC(=O)[C@@H](N)CCCCNC(=O)CC[C@H](NC(=O)CC[C@H](NC(=O)CC[C@H](NC(=O)CC[C@H](NC(=O)CC[C@H](NC(=O)CC[C@H](NC(=O)CCCCCCCCCCCCCCCCC(=O)O)C(=O)O)C(=O)O)C(=O)O)C(=O)O)C(=O)O)C(=O)O)C(=O)NC(C)(C)C(=O)N[C@H](C(=O)N[C@@H](CCCNC(=N)N)C(=O)N[C@@H](CCC(N)=O)C(=O)N[C@@H](CCCNC(=N)N)C(=O)N[C@@H](Cc1ccc(O)cc1)C(N)=O)[C@@H](C)O` [Compound 153, Y-Aib-E-G-T-F-T-S-D-Y-S-I-Aib-L-D-K-Q-A-Q-Aib-A-F-V-R-Y-L-I-N-K(1,3)-Aib-T-R-Q-R-Y-NH2.C18DA-gGlu-gGlu-gGlu-gGlu-gGlu-gGlu-eLys(1,2)], for which the EC50 at hGLP1R (setting [2]) came to 0.1 nM; at hGIPR (setting [3]), 0.1 nM; on hNPY2R (setting [4]), 40 nM. Further, the solubility at 2 h in data set [1] was determined as 8200 µg/mL.
